Reference: paper PMC4861708 (Frontiers in Cell and Developmental Biology, 2016)
Where two headings read alike, the source gives them in different places. Where a SMILES comes first, the peptide text is derived from it. [ ]: non-standard residue; d: D form. The star is where a group is joined. Orn(α-tetramethylguanidino) = CN(C)C(=N[C@@H](CCCN)C(=O)*)N(C)C; Orn = NCCC[C@H](N)C(=O)O

Experiments:
[1] = Quartz crystal microbalance, membrane interaction; format: binding
Method: Data were acquired with the Q-Sense E4 system (Q-sense, Sweden using polished, gold-coated, AT-cut quartz sensors with a fundamental frequency of ca. 5 MHz (Q-Sense, Västra Frölunda, Sweden) (Mechler et al., [2007]; McCubbin et al., [2011]). Briefly, sensors were cleaned with hydrogen peroxide (6% w/v) and aqueous ammonia (5.6% w/v) for 20 min (70–75°C), washed with water, and then activated with 3-mercaptopropionic acid (1 mmol/L in isopropanol) overnight. Liposomes consisting of DMPC and DMPG (molar ratio of 4:1) were deposited onto the sensors, washed with “high salt” PBS (20 mmol/L potassium phosphate, 0.1 mol/L NaCl, pH 6.9) and then with “low salt” PBS (10 mmol/L potassium phosphate, 30 mmol/L NaCl, pH 6.9). The system was equilibrated at 19.1 ± 0.1°C with “high salt” PBS, prior to the introduction of peptide solutions (2; 5; 10 and 20 μmol/L, 1 mL each in “high salt” PBS) at a flow rate of 50 μL/min over 20 min followed by an incubation, without any flow. Afterwards the “high salt” PBS was again introduced at 300 μL/min to determine if any surface materials could be removed from the sensor. Changes in the sensor frequency (Δf) and dissipation (ΔD) were monitored for the third, fifth, seventh, and ninth harmonic using Q-Soft (Q-Sense) and analyzed using Origin 8 software.

[2] = system: Primary rat cardiomyocytes; design: method as in Berthold et al., 2013; Bluhm et al., 2015; conditions: ref Berthold et al., 2013, Bluhm et al., 2015; cited from earlier work
HeLa cells [3] = system: HeLa cells; design: method as in Berthold et al., 2013; Bluhm et al., 2015; conditions: ref Berthold et al., 2013, Bluhm et al., 2015; cited from earlier work
in vitro [4] = format: cell-based, rat; conditions: rat
Method: (§1) Human embryonic kidney (HEK293) and HeLa cells were cultured in Dulbecco's modified Eagle's/Ham's F-12 medium [DMEM/F-12 (1:1)] supplemented with FBS (10% v/v), penicillin, and streptomycin (1000 units each). Primary rat cardiomyocytes (Innoprot, Elexalde Derio, Spain) were grown in medium supplemented with FBS (20% v/v), horse serum (5% v/v), L-glutamine (2 mmol/L), sodium pyruvate (2 mmol/L), MEM non-essential amino acids (Gibco, 0.1 mmol/L), penicillin, and streptomycin (1000 units each). Surfaces for cardiomyocyte growth were coated with attachment factor first. Cells (20,000/well) were seeded into a 96-well plate (PS, sterile, flat bottom), incubated for 24 h (37°C, 5% CO2), and washed twice with PBS (100 μl/well) prior to adding colorless medium (88 μL) and peptide solution (12 μL; 5, 2.5, 1.25, […], and 0.625 g/L in PBS). Positive controls were triton X-100 (1%, v/v) and melittin (60 mg/L) as lytic peptide, whereas PBS (12%, v/v) served as negative control. After an incubation period of 24 h, supernatant (25 μL) was mixed with lactate dehydrogenase (LDH) substrate (175 μL; 0.57 mmol/L sodium pyruvate, 0.24 mmol/L NADH disodium salt, 32 mmol/L potassium dihydrogen phosphate, 66 mmol/L dipotassium phosphate) in 96-well plates (PS, sterile, flat bottom). Absorbance was recorded at 340 nm every 3 min for 30 min on the Paradigm microplate reader. Due to the total release of LDH upon triton X-100 treatment, the control contained high LDH concentrations resulting in a fast substrate turnover that was only linear for the first 6 min.
(§2) The MTT cell viability assay relied on the same cell culture. Remaining medium was replaced by a mixture of fresh colorless medium (100 μL) and MTT (10 μL; 5 g/L in PBS) and incubated for 4 h (37°C, 5% CO2). A solution of sodium dodecyl sulfate (100 μL; 10%, w/v) dissolved in hydrochloric acid (10 mmol/L) was added, incubated (16 h), and the absorbance recorded at 590 nm relative to the reference at 650 nm (Paradigm microplate reader). The relative cell viability was calculated by [(ODPeptide − ODTriton)/(ODPBS − ODTriton)] × 100% and half-maximal inhibitory concentrations (IC50) with an Excel-template from cell biology protocols (www.sciencegateway.org/ protocols/cellbio/drug/hcic50.htm). For statistical analysis an unpaired t-test was applied using GraphPad Prism 5.0.

[5] = system: Primary rat cardiomyocytes; test: in vitro; format: cell-based; conditions: 24 h
Method: as §1, §2

HeLa cells [6] = format: cell-based; conditions: 24 h
Method: as §1, with “Due to the total release of LDH upon triton X-100 treatment, the control contained high LDH concentrations resulting in a fast substrate turnover that was only linear for the first 6 min.” left out

in vitro [7] = conditions: mouse, mouse serum
Method: Peptide solutions (1 g/L) were added to mouse serum to obtain final concentrations of 70 mg/L peptide and incubated under constant shaking at 37°C. After 0, 1, 2, 3, and 6 h aliquots (95 μL) were precipitated with aqueous TCA (25 μL, 15% w/v), incubated for 10 min on ice, and centrifuged (5 min, 12,000 × g, Eppendorf mini spin centrifuge). An aliquot of the supernatant (95 μL) was neutralized with sodium hydroxide (8 μL, 1 mol/L) and diluted with aqueous acetonitrile solution (3% acetonitrile, 0.1% TFA; 200 μL). Peptides were quantified by the peak areas obtained by analytical RP-HPLC on a Jupiter C18-column (ID: 2 mm) using a linear aqueous acetonitrile gradient with 0.1% (v/v) TFA (absorbance recorded at 214 nm). Peak areas of all time points were normalized to the initial peak area obtained after “0 min incubation” (= 100%). Experiments were carried out as triplicates in parallel and half-life times were calculated using GraphPad Prism 5.0.

HeLa cells [8] = test: Flow cytometry, endocytosis inhibition with dynasore; format: cell-based; conditions: dynasore 0.2 mmol/L 45 min, peptide 40 μmol/L 30 min
Method: Fresh colorless medium (150 μL) supplemented with either dynasore (0.2 mmol/L) dissolved in DMSO (final concentration of 0.2% v/v) or DMSO (0.2% v/v) as vehicle control was added. After 45 min (37°C) the supernatant was replaced by fresh medium supplemented with either dynasore or DMSO at the same concentrations (144 μL), Cf-labeled peptide added (6 μL, 1 mmol/L in water), and incubated (30 min, 37°C). Cells were fixed and stained with Hoechst 33342 as described above.
HeLa cells (50,000 for endocytosis inhibition and 70,000 for uptake kinetics) suspended in DMEM/F-12 medium (300 μL; see above) were seeded into 48-well plates (PS, sterile, flat bottom) and incubated (23 ± 1 h) using the conditions described above. Cells were washed twice with PBS (300 μL/well) and fresh medium was added (144 μL).
Cell cultures were prepared and incubated in the presence of dynasore, as described for microscopy. Cells were washed, treated with trypsin, and fixed as described above, dissolved in FACS buffer, and analyzed the same day.

in vitro [9] = format: cell-based; conditions: human
[10] = Half-life time against serum proteases, serum (abstract)
[11] = Half-life time mouse serum, 37°C

Structure (SMILES)	QCM change in dissipation (ΔD) ([1]; 2-20 μmol/L, incubation period ii)	QCM frequency loss upon washing with PBS buffer ([1]; period iii, DMPC:DMPG 4:1)	IC50 on cell viability [2]	IC50 on cell viability (HeLa cells [3])	viability at 24 h, 0.6 g/L (in vitro [4])	IC50 on cell viability [5]	EC50 of LDH release (HeLa cells [6])	half-life at 70 mg/L (in vitro [7]; [10])	half-life at 70 mg/L (in vitro [7]; [11])	Drop of GeoMean fluorescence (uptake) in the presence of dynasore vs vehicle control (HeLa cells [8])	viability at 24 h, 0.6 g/L (in vitro [9])	QCM Δf (peptide insertion) ([1]; 2 μmol/L, DMPC:DMPG 4:1)	QCM Δf (peptide insertion) ([1]; 5, 10, and 20 μmol/L, DMPC:DMPG 4:1)
CC[C@H](C)[C@H](NC(=O)[C@H](Cc1ccc(O)cc1)NC(=O)[C@@H](NC(=O)[C@@H]1CCCN1C(=O)[C@H](CCCNC(=N)N)NC(=O)[C@H](CC(N)=O)NC(=O)[C@H](CC(N)=O)NC(=O)[C@H](CCCN)N=C(N(C)C)N(C)C)C(C)C)C(=O)N1CCC[C@H]1C(=O)N[C@@H](CCCNC(=N)N)C(=O)N1CCC[C@H]1C(=O)N[C@@H](CCCNC(=N)N)C(=O)N1CCC[C@H]1C(=O)N1CCC[C@H]1C(=O)N[C@@H](Cc1c[nH]cn1)C(=O)N1CCC[C@H]1C(=O)N[C@@H](CCCNC(=N)N)C(=O)N[C@@H](CC(C)C)C(=O)O [Api137, gu-ONNRPVYIPRPRPPHPRL-OH, reference compound] ({Orn(α-tetramethylguanidino)}-NNRPVYIPRPRPPHPRL-OH)	No change	~ 2 Hz	>600 mg/L	>600 mg/L	–	–	–	–	–	–	–	–	–
CC(C)C[C@H](NC(=O)[C@H](CCCNC(=N)N)NC(=O)[C@@H]1CCCN1C(=O)[C@H](Cc1c[nH]cn1)NC(=O)[C@@H]1CCCN1C(=O)[C@@H]1CCCN1C(=O)[C@H](CCCNC(=N)N)NC(=O)[C@@H]1CCCN1C(=O)[C@H](CCCNC(=N)N)NC(=O)[C@@H]1CCCN1C(=O)[C@H](CCCN)NC(=O)[C@H](Cc1ccc(O)cc1)NC(=O)[C@@H](NC(=O)[C@@H]1CCCN1C(=O)[C@H](CCCNC(=N)N)NC(=O)[C@H](CCCN)NC(=O)[C@H](Cc1c[nH]c2ccccc12)NC(=O)[C@H](CCCN)NC(=O)[C@H](Cc1c[nH]c2ccccc12)NC(=O)[C@H](CCCN)NC(=O)[C@H](Cc1c[nH]c2ccccc12)NC(=O)[C@H](CCCN)N=C(N(C)C)N(C)C)C(C)C)C(=O)O [Api794, gu-O(WO)3RPVYOPRPRPPHPRL-OH] ({Orn(α-tetramethylguanidino)}-W[Orn]W[Orn]W[Orn]RPVY[Orn]PRPRPPHPRL-OH)	–	–	–	–	64 ± 3%	>600 mg/L	560 ± 160 mg/L	> 5 h	5.18 h	50%	–	–	–
CC[C@H](C)[C@H](NC(=O)[C@H](CCCN)N=C(N(C)C)N(C)C)C(=O)N[C@@H](CCCN)C(=O)N[C@H](C(=O)N[C@@H](CCCN)C(=O)N[C@@H](CCCNC(=N)N)C(=O)N1CCC[C@H]1C(=O)N[C@H](C(=O)N[C@@H](Cc1ccc(O)cc1)C(=O)N[C@@H](CCCN)C(=O)N1CCC[C@H]1C(=O)N[C@@H](CCCNC(=N)N)C(=O)N1CCC[C@H]1C(=O)N[C@@H](CCCNC(=N)N)C(=O)N1CCC[C@H]1C(=O)N1CCC[C@H]1C(=O)N[C@@H](Cc1c[nH]cn1)C(=O)N1CCC[C@H]1C(=O)N[C@@H](CCCNC(=N)N)C(=O)N[C@@H](CC(C)C)C(=O)O)C(C)C)[C@@H](C)CC [Api795, gu-O(IO)2RPVYOPRPRPPHPRL-OH] ({Orn(α-tetramethylguanidino)}-I[Orn]I[Orn]RPVY[Orn]PRPRPPHPRL-OH)	–	–	–	–	83 ± 4%	>600 mg/L	–	> 5 h	5.9 h	80%	78 ± 14%	9 Hz	6 Hz
